Consider one compound from ChEMBL document CHEMBL4190187, “Discovery of pyrazolopyrimidine derivatives as novel inhibitors of ataxia telangiectasia and rad3 related protein (ATR)” (Bioorg Med Chem Lett, 2017).

The target in assay [1] is Ephrin type-B receptor 4 (Homo sapiens) (UniProt P54760). The assay is described as follows: Inhibition of recombinant human EPHB4 (561 to end residues) at 1 uM using poly(Glu,Tyr) 4:1 as substrate after 40 mins in presence of [gamma-33P]ATP by scintillation counting method.
For assay [2], the target named is CDK9/cyclin T1 (Homo sapiens) (UniProt O60563+P50750). Briefly: Inhibition of recombinant full-length human CDK9/Cyclin T1 at 1 uM using KTFCGTPEYLAPEVRREPRILSEEEQEMFRDFDYIADWC as substrate after 40 mins in presence of [gamma-33P]ATP by scintillation counting method. It counts as protein-complex assay.
The target in assay [3] is Phosphatidylinositol 3-kinase C2 domain-containing subunit gamma (Homo sapiens) (UniProt O75747). The assay is described as follows: Inhibition of recombinant human PI3KC2gamma (468 to 1203 residues) at 1 uM phosphatidylinositol/phosphatidylserine as substrate after 40 mins in presence of [gamma-33P]ATP by scintillation counting method.
The target in assay [4] is Serine/threonine-protein kinase Chk1 (Homo sapiens) (UniProt O14757). The assay is described as follows: Inhibition of recombinant full-length human CHK1 at 1 uM using KKKVSRSGLYRSPSMPENLNRPR as substrate after 40 mins in presence of [gamma-33P]ATP by scintillation counting method.
In assay [5] the test system is Macrophage colony-stimulating factor 1 receptor (Homo sapiens), P07333 [Y969C]. The assay is described as follows: Inhibition of recombinant human Fms Y969C mutant (538 to end residues) at 1 uM using EEEEYEEEEEEYYIIEEEEEEYEEEEEEYYEEEEEEKKKK as substrate after 40 mins in presence of [gamma-33P]ATP by scintillation counting method.
Assay [6] addresses Serine/threonine-protein kinase PAK 1 (Homo sapiens) (UniProt Q13153). Briefly: Inhibition of recombinant human PAK1 (150 to end residues) at 1 uM using RRRLSFAEPG as substrate after 40 mins in presence of [gamma-33P]ATP by scintillation counting method.
Assay [7] concerns the target Tyrosine-protein kinase receptor UFO (Homo sapiens) (UniProt P30530). The assay is described as follows: Inhibition of recombinant human Axl (473 to end residues) at 1 uM using KKSRGDYMTMQIG as substrate after 40 mins in presence of [gamma-33P]ATP by scintillation counting method.
In assay [8] the test system is Epidermal growth factor receptor (Homo sapiens), P00533 [L861Q]. The assay is described as follows: Inhibition of recombinant human EGFR L861Q mutant (696 to end residues) at 1 uM using poly(Glu,Tyr) 4:1 as substrate after 40 mins in presence of [gamma-33P]ATP by scintillation counting method.
The target of assay [9] is Serine/threonine-protein kinase 32B (Homo sapiens) (UniProt Q9NY57). The assay is described as follows: Inhibition of recombinant full-length human STK32B at 1 uM using casein as substrate after 120 mins in presence of [gamma-33P]ATP by scintillation counting method.
In assay [10] the test system is Epidermal growth factor receptor (Homo sapiens), P00533 [L858R]. The assay is described as follows: Inhibition of recombinant human EGFR L858R mutant (696 to end residues) at 1 uM using poly(Glu,Tyr) 4:1 as substrate after 40 mins in presence of [gamma-33P]ATP by scintillation counting method.
The target of assay [11] is PI3K p110 alpha/p85 alpha (Mus musculus) (UniProt P26450+P42337). The assay is described as follows: Inhibition of recombinant full-length mouse p110a E545K mutant/p85a at 1 uM using phosphatidylinositol 4,5-bisphosphate as substrate after 40 mins in presence of [gamma-33P]ATP by scintillation counting method. It counts as protein-complex assay.
Assay [12] addresses Tyrosine-protein kinase Lck (Homo sapiens) (UniProt P06239). Briefly: Inhibition of recombinant full-length human Lck at 1 uM using KVEKIGEGTYGVVYK (Cdc2 peptide) as substrate after 40 mins in presence of [gamma-33P]ATP by scintillation counting method.
The target in assay [13] is Protein kinase C beta type (Homo sapiens) (UniProt P05771). Briefly: Inhibition of recombinant human PKCbeta1 (2 to end residues) at 1 uM using histone H1 as substrate after 40 mins in presence of [gamma-33P]ATP by scintillation counting method.
Assay [14] addresses DNA-dependent protein kinase catalytic subunit (Homo sapiens) (UniProt P78527). The assay is described as follows: Inhibition of recombinant full-length human DNA-PK at 1 uM using GST-cMyc-p53 as substrate after 40 mins in presence of [gamma-33P]ATP by scintillation counting method.
The target of assay [15] is Calcium/calmodulin-dependent protein kinase type II subunit beta (Homo sapiens) (UniProt Q13554). The assay is described as follows: Inhibition of recombinant human CAMK2beta (1 to 315 residues) at 1 uM using […] after 40 mins in presence of [gamma-33P]ATP by scintillation counting method.
The target of assay [16] is SRSF protein kinase 2 (Homo sapiens) (UniProt P78362). The assay is described as follows: Inhibition of recombinant human SRPK2 (46 to end residues) at 1 uM using RSRSRSRSRSRSRSR as substrate after 40 mins in presence of [gamma-33P]ATP by scintillation counting method.
For assay [17], the target named is Mitogen-activated protein kinase 8 (Homo sapiens) (UniProt P45983). The assay is described as follows: Inhibition of recombinant full-length human JNK1alpha1 at 1 uM using ATF2 as substrate after 40 mins in presence of [gamma-33P]ATP by scintillation counting method.
The target of assay [18] is Serine/threonine-protein kinase Nek3 (Homo sapiens) (UniProt P51956). The assay is described as follows: Inhibition of recombinant full-length human NEK3 at 1 uM using myelin basic protein as substrate after 40 mins in presence of [gamma-33P]ATP by scintillation counting method.
The test system of assay [19] is Tyrosine-protein kinase BTK (Homo sapiens), Q06187 [R28H]. Briefly: Inhibition of recombinant full-length human BTK R28H mutant at 1 uM using LSNLYHQGKFLQTFCGSPLYRRR as substrate after 40 mins in presence of [gamma-33P]ATP by scintillation counting method.
Assay [20] concerns the target High affinity nerve growth factor receptor (Homo sapiens) (UniProt P04629). Briefly: Inhibition of recombinant human TrkA (440 to end residues) at 1 uM using KKKSPGEYVNIEFG as substrate after 40 mins in presence of [gamma-33P]ATP by scintillation counting method.
Assay [21] concerns the target Serine/threonine-protein kinase 26 (Homo sapiens) (UniProt Q9P289). Briefly: Inhibition of recombinant human MST4 (4 to 304 residues) at 1 uM using RLGRDKYKTLRQIRQ as substrate after 40 mins in presence of [gamma-33P]ATP by scintillation counting method.
In assay [22] the target is Serine/threonine-protein kinase ATR (Homo sapiens, UniProt Q13535). The assay is described as follows: Inhibition of human recombinant FLAG-tagged full length ATR expressed in mammalian cell line co-expressing human recombinant cMyc-tagged full length ATRIP.
For assay [23], the target named is Mitogen-activated protein kinase 11 (Homo sapiens) (UniProt Q15759). The assay is described as follows: Inhibition of recombinant full-length human SAPK2b at 1 uM using myelin basic protein as substrate after 40 mins in presence of [gamma-33P]ATP by scintillation counting method.
Assay [24] has as its target Mitogen-activated protein kinase 9 (Homo sapiens) (UniProt P45984). Briefly: Inhibition of recombinant full-length human JNK2alpha2 at 1 uM using ATF2 as substrate after 40 mins in presence of [gamma-33P]ATP by scintillation counting method.

Epidermal growth factor receptor (Homo sapiens), P00533 [L861Q], sequence (P00533 whole entry L861Q): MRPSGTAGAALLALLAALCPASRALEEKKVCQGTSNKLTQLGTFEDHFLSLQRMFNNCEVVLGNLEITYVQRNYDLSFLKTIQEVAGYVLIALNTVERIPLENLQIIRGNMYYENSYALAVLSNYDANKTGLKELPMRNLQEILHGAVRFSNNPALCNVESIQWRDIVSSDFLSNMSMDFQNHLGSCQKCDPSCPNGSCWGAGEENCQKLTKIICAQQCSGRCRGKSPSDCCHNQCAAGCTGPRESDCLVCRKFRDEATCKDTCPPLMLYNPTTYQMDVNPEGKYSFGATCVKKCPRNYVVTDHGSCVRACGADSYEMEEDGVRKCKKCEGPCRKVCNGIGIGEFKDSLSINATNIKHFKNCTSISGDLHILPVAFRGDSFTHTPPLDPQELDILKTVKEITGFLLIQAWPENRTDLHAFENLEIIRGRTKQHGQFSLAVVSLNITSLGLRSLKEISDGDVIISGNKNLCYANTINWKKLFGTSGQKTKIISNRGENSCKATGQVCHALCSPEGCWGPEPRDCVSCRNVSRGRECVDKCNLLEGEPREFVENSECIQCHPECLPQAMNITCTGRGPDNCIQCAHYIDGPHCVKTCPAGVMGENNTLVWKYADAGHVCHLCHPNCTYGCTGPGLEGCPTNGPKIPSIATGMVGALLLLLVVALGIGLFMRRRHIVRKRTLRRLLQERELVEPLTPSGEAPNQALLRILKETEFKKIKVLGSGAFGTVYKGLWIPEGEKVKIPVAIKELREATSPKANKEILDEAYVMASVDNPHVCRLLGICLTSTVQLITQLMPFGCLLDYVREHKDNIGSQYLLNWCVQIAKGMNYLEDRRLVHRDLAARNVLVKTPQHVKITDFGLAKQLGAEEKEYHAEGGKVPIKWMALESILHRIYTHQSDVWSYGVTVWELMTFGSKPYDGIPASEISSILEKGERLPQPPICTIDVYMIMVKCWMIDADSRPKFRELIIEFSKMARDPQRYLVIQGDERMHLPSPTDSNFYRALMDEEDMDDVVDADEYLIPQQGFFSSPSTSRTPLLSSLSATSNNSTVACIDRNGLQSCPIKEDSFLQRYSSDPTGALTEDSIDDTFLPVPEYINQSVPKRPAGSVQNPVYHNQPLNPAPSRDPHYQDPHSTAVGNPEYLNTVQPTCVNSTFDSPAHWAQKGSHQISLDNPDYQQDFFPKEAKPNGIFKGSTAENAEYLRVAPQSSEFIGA
Serine/threonine-protein kinase 26 (Homo sapiens), sequence (Q9P289 2-416 limits assumed): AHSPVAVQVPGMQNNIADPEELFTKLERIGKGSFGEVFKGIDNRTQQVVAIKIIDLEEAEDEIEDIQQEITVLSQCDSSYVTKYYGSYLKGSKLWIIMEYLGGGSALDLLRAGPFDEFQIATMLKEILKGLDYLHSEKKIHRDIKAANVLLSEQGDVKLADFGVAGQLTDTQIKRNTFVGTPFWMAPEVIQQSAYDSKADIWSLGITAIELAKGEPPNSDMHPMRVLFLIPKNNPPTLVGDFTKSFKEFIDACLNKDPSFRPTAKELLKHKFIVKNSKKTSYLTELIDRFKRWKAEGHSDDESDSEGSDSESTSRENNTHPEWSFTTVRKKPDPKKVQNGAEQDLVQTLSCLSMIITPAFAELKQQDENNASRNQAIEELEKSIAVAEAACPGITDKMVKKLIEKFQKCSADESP
SRSF protein kinase 2 (Homo sapiens), sequence (P78362 whole entry, looked up): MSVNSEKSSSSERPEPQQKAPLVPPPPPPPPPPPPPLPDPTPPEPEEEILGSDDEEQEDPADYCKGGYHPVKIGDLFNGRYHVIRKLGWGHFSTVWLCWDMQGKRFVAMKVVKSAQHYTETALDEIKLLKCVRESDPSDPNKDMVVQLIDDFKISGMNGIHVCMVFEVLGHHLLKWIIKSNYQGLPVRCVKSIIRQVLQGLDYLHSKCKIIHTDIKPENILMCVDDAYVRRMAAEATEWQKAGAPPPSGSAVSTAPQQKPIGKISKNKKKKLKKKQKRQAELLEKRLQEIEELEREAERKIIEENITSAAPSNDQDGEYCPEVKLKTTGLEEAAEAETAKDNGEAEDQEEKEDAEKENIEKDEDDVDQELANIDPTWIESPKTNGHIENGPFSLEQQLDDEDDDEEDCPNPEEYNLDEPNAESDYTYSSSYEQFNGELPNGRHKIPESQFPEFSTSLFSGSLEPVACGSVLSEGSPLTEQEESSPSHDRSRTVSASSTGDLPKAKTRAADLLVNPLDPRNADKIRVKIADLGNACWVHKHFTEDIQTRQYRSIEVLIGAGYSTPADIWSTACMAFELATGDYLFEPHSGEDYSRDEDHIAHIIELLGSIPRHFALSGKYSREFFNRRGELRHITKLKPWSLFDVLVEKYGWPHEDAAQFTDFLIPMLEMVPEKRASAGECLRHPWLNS
Epidermal growth factor receptor (Homo sapiens), P00533 [L858R], sequence (P00533 whole entry L858R): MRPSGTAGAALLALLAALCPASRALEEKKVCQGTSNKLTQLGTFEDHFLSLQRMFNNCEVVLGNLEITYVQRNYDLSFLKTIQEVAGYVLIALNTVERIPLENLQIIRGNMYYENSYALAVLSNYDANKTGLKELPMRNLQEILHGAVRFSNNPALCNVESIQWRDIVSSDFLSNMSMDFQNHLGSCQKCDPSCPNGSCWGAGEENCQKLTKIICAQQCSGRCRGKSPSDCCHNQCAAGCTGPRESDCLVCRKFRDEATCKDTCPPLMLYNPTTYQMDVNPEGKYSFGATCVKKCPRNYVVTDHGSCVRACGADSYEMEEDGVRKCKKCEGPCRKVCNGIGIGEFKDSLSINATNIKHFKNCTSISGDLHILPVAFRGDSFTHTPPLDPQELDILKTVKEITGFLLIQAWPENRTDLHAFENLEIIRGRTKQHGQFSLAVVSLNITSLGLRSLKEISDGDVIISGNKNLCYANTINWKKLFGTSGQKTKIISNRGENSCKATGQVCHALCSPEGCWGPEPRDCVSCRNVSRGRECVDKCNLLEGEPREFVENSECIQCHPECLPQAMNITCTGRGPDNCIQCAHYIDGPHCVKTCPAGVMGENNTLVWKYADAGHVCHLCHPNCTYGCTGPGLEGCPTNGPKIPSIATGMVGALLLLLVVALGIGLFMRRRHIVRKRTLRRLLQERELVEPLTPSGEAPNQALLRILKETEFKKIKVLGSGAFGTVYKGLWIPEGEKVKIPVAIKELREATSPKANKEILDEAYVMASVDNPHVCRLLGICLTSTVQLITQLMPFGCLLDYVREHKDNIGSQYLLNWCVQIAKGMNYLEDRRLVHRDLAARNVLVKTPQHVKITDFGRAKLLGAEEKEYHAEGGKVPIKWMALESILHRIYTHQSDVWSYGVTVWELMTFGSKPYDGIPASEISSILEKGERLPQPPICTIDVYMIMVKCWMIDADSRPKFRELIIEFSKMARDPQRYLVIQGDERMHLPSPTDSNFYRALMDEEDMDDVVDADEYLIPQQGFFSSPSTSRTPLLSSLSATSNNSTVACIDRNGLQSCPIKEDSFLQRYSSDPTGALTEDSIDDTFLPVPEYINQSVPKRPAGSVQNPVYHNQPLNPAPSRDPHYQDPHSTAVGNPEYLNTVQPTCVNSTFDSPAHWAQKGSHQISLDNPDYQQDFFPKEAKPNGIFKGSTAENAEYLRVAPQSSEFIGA
Serine/threonine-protein kinase Chk1 (Homo sapiens), sequence (O14757 whole entry): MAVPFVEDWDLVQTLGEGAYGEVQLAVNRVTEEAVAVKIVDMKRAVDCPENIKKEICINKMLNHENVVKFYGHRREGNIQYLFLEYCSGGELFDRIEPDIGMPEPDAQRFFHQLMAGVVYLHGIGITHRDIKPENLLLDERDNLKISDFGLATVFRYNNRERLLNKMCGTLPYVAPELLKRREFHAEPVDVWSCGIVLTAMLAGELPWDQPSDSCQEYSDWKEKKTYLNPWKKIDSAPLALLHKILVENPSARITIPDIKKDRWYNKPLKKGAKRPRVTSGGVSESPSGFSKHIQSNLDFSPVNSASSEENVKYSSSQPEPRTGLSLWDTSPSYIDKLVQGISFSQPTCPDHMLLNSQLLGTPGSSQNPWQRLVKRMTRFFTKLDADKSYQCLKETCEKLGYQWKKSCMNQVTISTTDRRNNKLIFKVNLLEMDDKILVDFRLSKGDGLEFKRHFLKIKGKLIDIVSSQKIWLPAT
Serine/threonine-protein kinase 32B (Homo sapiens), sequence (Q9NY57 whole entry): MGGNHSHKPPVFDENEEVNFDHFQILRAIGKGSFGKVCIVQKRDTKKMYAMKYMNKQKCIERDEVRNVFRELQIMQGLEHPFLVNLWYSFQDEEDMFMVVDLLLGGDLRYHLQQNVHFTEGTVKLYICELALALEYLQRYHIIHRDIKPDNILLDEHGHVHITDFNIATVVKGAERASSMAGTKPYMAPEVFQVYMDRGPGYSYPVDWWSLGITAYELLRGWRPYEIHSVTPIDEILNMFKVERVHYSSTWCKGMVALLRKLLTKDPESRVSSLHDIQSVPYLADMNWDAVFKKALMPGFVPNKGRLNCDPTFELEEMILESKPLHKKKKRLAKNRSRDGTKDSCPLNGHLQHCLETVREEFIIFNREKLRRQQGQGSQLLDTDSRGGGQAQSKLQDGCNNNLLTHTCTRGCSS
Tyrosine-protein kinase Lck (Homo sapiens), sequence (P06239 2-509 limits assumed): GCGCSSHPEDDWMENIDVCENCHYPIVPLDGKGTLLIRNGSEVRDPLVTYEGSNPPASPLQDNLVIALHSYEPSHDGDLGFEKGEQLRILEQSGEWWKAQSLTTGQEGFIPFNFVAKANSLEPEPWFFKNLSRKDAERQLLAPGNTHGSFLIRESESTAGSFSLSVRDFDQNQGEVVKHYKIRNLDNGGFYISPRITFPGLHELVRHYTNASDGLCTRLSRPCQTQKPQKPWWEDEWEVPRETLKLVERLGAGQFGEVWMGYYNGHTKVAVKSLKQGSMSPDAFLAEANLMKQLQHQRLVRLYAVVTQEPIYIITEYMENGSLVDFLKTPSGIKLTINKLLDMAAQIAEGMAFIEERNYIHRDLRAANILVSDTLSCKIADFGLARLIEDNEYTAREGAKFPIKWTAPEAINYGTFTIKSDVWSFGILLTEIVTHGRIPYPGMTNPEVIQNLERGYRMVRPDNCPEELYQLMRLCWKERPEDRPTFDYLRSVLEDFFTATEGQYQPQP

A word on the inhibition: it is the relative decrease from the control value, in per cent. A word on the IC50: it is the concentration needed to halve the response being measured. For the compound `CS(=O)(=O)c1ccc(-n2nc(-c3cnc4[nH]ccc4c3)c3c(N)ncnc32)cc1`, the inhibition in assay [1] was found to be 27%; in assay [2] it was 7%; in assay [3], 15%; in assay [4] it was 2%; in [5], 69%; in [6] it was 4%. The inhibition amounted to 9% in [7]; 31% in assay [8]; 7% in assay [9]; 5% in assay [10]; 11% in [11]; 55% in [12]. In addition, the inhibition is 6% in [13]; 59% in [14]; -4% in [15]; 0% in [16]; 1% in assay [17]; -7% in [18]. Besides, the inhibition in assay [19] is 5%; in assay [20] it was 2%; in [21], -3%; in assay [23], -1%; in assay [24], -6%. Also, the IC50 in [22] was determined as 66 nM.
